Measured values: patent US20210161189A1, “MONOESTER SUGAR DERIVATIVES AS FLAVOR MODIFIERS” (Firmenich SA, priority 2018, published 2021)

Assays:
sensory panel [1] = assay: Sensory panel, dairy test composition (milk sweetened with 3% w/v sucrose); assay type: in vivo, human; settings: 100 ppm in milk sweetened with 3% sucrose; panel score
Protocol: Glucose-6-O-octanoate, manufactured according to the methods described in Example 1 above was added to a dairy test composition (milk sweetened with 3% w/v sucrose), to result in a final concentration of 100 ppm in the test composition. In parallel, a control composition, comprising milk sweetened with 3% w/v sucrose was also generated. A sensory panel consisting of between 6 to 8 persons compared the overall flavor, sweetness, acidity, bitterness, astringency, off-notes, and long-lastingness of the sweetness of the dairy test composition containing 100 ppm glucose-6-O-octanoate and the control composition. The results were analyzed using the Duncan comparison test.

sensory panel [2] = assay: Sensory panel, coffee composition (Emmi Noir coffee, containing milk); assay type: in vivo, human; settings: 200 ppm in coffee containing milk; panel score
Protocol: (§1) Next, glucose-6-O-octanoate was added to a coffee composition (Emmi Noir coffee, containing milk), to result in a final concentration of 200 ppm in the test composition. In parallel, a control composition, comprising Emmi Noir coffee, containing milk was also generated. A sensory panel consisting of between 6 to 8 persons compared the overall flavor, sweetness, acidity, bitterness, astringency, off-notes, and long-lastingness of the sweetness of the test composition and the control composition. The results were analyzed using the Duncan comparison test.

sensory panel [3] = assay: Sensory panel, pomegranate juice; assay type: in vivo, human; settings: 100 ppm in pomegranate juice; panel score
Protocol: as §1, with “pomegranate juice composition,” for “coffee composition (Emmi Noir coffee, containing milk),”, “100” for “200”, “pomegranate juice” for “Emmi Noir coffee, containing milk”

sensory panel [4] = assay: Sensory panel, energy drink; assay type: in vivo, human; parameters: scale not given here; settings: panel score
Protocol: […] In parallel, a control energy drink composition was also generated. A sensory panel consisting of between 6 to 8 persons compared the overall flavor, sweetness, acidity, bitterness, astringency, off-notes, and long-lastingness of the sweetness of the test composition and the control composition. The results were analyzed using the Duncan comparison test.

sensory panel [5] = assay: Taste modifier properties in model systems (sensory panel of 15 persons, with/without noseclip); assay type: in vivo, human; settings: 100 ppm; for Sour taste modulation effect: without nose clip
Protocol: The sensory properties of various compositions comprising a monoester derivative of glucose were tested in various model systems, outlined in Table 14 below. [table] FIGS. 12 to 18 report the sweetness modifier properties of each of the following compounds (tested at 100 ppm in the various mode systems described above): glucose-6-O-octanoate, glucose-6-O-acetate, glucose-6-O-hexanoate, glucose-6-O-decanoate, glucose-6-O-hexadecanoate, glucose-6-O-oleate and glucose-6-O-oleyl derivative. The sensory properties were evaluated by a sensory panel consisting of15 persons, where the properties were evaluated with the subjects wearing a noseclip (With NC), and without a noseclip (Without NC). The subjects evaluate the perceived intensities of different sensory attributes on a linear scale (“0” note intense to “10” very intense) for the corresponding model mixtures without and with the compound at 100ppm. The differences of perceived intensities between the model mixtures with and without the compound are represented for each attribute. A statistical data treatment (unilateral paired student test) is achieved on each attribute to conclude on a significant or not significant taste modulation effect of the compound.

β-Lactoglobulin layer = target: T1, β-Lactoglobulin layer (Bos taurus, UniProt P02754); assay: QCM-D mass adsorption of BWAT Raspberry water films on a protein layer; assay type: physicochemical; settings: for mass/area: mass absorption on protein layer
T1 sequence (P02754 17-178): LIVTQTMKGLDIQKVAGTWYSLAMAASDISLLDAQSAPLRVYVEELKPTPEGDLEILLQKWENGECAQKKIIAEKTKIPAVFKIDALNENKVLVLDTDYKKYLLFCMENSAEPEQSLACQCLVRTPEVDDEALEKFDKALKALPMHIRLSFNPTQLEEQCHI
Source text: Quartz Crystal Microbalance with Dissipation monitoring (QCM-D) is a real-time, nanoscale technique for monitoring and characterizing thin films on surfaces as well for analyzing surface phenomena including thin film formation, adsorption, desorption, molecular interactions, reactions and structural properties. In this way, the QCM operates as a very sensitive balance.
A QCM sensor consists of a thin quartz disc sandwiched between a pair of electrodes. Due to the piezoelectric properties of quartz, it is possible to excite the crystal to oscillation by applying an AC voltage across its electrodes. Normally the electrodes are made of gold, which can be coated with a wide range of different materials. The resonance frequency (f) of the sensor depends on the total oscillating mass, including water coupled to the oscillation. When a thin film is attached to the sensor, the frequency decreases. If the film is thin and rigid the decrease in frequency is proportional to the mass of the film. Frequency monitoring gives information about mass changes and thickness of adsorbed film. Adsorbed films dampen the sensor's oscillation. […] Therefore dissipation is related to the rigidity of the adsorbed film.
This technique was used to analyse the properties of adsorbed BWAT Raspberry water films on a β-Lactoglobulin layer in order to compare the obtained physico-chemical data to the sensory data mentioned beforehand. β-Lactoglobulin was used in order to mimic the protein layer in the oral cavity.
The measurements were done as duplicates. First a protein layer was adsorbed on the quartz crystal. As soon as equilibrium is obtained, the excessive protein layer was rinsed with Millipore water in order to create a homogenous protein monolayer. Ensuing, the Raspberry water was left to rinse over the protein layer—frequency changes and energy dissipation were monitored during a time lapse of 10 min. A last rinsing step with Millipore was conducted.
To understand the role of glucose-6-O-octanoate (G60) as astringency/bitterness modulator the following solutions were investigated on their adsorption behavior.

CCCCCCCC(=O)OC[C@@H](O)[C@@H](O)[C@H](O)[C@@H](O)C=O [glucose-6-O-octanoate]
Acidity (sensory panel [1]): 0 | Astringency (sensory panel [1]): 0.6 | Bitterness (sensory panel [1]): 0.8 | Long-Lasting (sensory panel [1]): 1.4 | Overall Flavor (sensory panel [1]): 1.8 | Acidity (sensory panel [2]): 0.17 | Bitterness (sensory panel [2]): 1.92 | Long-lasting (sweet) (sensory panel [2]): 1.83 | Off-notes (sensory panel [2]): 0.33 | Overall Flavor (sensory panel [2]): 3.17 | Long-Lasting (sensory panel [3]): 1.75 | Off-notes (sensory panel [3]): 0.62 | Overall Flavor (sensory panel [3]): 3.38 | Acidity (sensory panel [4]; 100 ppm in energy drink): 2.17 | Astringency (sensory panel [4]; 100 ppm in energy drink): 0.67 | Bitterness (sensory panel [4]; 100 ppm in energy drink): 0.83 | Long-Lasting (sensory panel [4]; 100 ppm in energy drink): 2 | Overall Flavor (sensory panel [4]; 100 ppm in energy drink): 3.33 | Acidity (sensory panel [4]; 200 ppm in energy drink): 2.5 | Astringency (sensory panel [4]; 200 ppm in energy drink): 0.29 | Bitterness (sensory panel [4]; 200 ppm in energy drink): 0.93 | Off-notes (sensory panel [4]; 200 ppm in energy drink): 0.21 | Overall Flavor (sensory panel [4]; 200 ppm in energy drink): 3.5 | Sweet taste modulation effect (sensory panel [5]; SG95 model mixture, without and with nose clip): significant sweet enhancing effects | Round/thick/mouth coating modulation effect (sensory panel [5]; beverage grapefruit model, with nose clip, significance 95%): significant round/thick/mouth coating enhancing effect | Sour taste modulation effect (sensory panel [5]; beverage grapefruit model, significance 95%): significant sour masking effect | Sweet taste modulation effect (sensory panel [5]; semi-skimmed milk+sucrose model mixture, without and with nose clip): significant sweet enhancing effects | Sweet taste modulation effect (sensory panel [5]; stevia-sour model, with nose clip, significance 95%): significant sweet masking effect | Sweet taste modulation effect (sensory panel [5]; sucrose model mixture): significant sweet enhancing effects | Sour taste modulation effect (sensory panel [5]; sweet-sour model mixture, significance 95%): significant sour masking effect | Mass adsorption versus control sample (β-Lactoglobulin layer; BWAT raspberry water in presence of G60): higher mass adsorption compared to the control sample | mass/area (β-Lactoglobulin layer; BWAT w/ 200 ppm G60): 1257 ng/cm^2 | mass/area (β-Lactoglobulin layer; BWAT w/ 1000 ppm G60): 1194 ng/cm^2 | Amount of rinsed away mass (β-Lactoglobulin layer; over the 10 min of mass adsorption monitoring, dependence on G60 concentration): The higher the G60 concentration the lower is the amount of rinsed away mass
